From patent US20260283983A1, “PHARMACEUTICAL COMPOSITIONS FOR WOUND CARE” (BIO PROTECTANT TECHNOLOGIES, INC., priority 2023, published 2026)
Converted amounts (≈) assume the structure as drawn. Where a SMILES comes first, the peptide text is derived from it. Bridges are numbered along the chain shown (N, C = ends). [ ]: non-standard residue; d: D form. The star is where a group is joined. Ileψ(thiazoline)Cys = CC[C@H](C)[C@H](N)C1=N[C@H](C(=O)*)CS1; dOrn = NCCC[C@@H](N)C(=O)O

Tests used:
S. mutans = S. mutans quantitative biofilm reduction assay; assay type: cell-based; details: same treatment concentration; FIG. 6A-6C
Protocol: • Day 1: O/N culture of S. mutans • Day 2: Dilute O/N culture 1:9 in BHI • Place discs in 2 mL diluted culture and incubate 24 h • Day 3 Transfer discs to 2 mL BMGS (culture in BMGS for 1-3 days) • Day 4 1-Day: Transfer discs to 2 mL sterilants for desired incubation time • Transfer discs back to 2 mL BMGS for 24 h • 2-Day: Transfer discs to 2 mL BMGS and incubate for another 24 h • Day 5 1-Day: Sonicate disc and plate 100 μL of different dilutions • 2-Day: Transfer discs to 2 mL sterilants for desired incubation time • Transfer discs back to 2 mL BMGS for 24 h • Day 6 1-Day: Count plates • 2-Day: Sonicate disc and plate 100 μL of different dilutions • Day 7 Count plates

S. aureus ATCC 6538 = test: MIC and MBC determination, S. aureus ATCC 6538; assay type: cell-based; details: Staphylococcus aureus
From the text: (§1) The MIC and MBC of Formulation B was initially determined using a panel of S. aureus strains (Table 1) including laboratory S. aureus ATCC 6538, bioluminescent S. aureus strain Newman, bioluminescent CA-MRSA strain MW2, and a MRSA clinical isolate.

MRSA clinical isolate = test: MIC and MBC determination, MRSA clinical isolate; assay type: cell-based, S. aureus; details: Staphylococcus aureus
From the text: as §1

[1] = system: Bioluminescent CA-MRSA strain MW2; test: MIC and MBC determination, bioluminescent CA-MRSA strain MW2; assay type: cell-based, S. aureus; details: Staphylococcus aureus
From the text: as §1

[2] = system: Bioluminescent S. aureus strain Newman; test: MIC and MBC determination, bioluminescent S. aureus strain Newman; assay type: cell-based; details: Staphylococcus aureus
From the text: as §1

[3] = system: bioluminescent MRSA (CA-MRSA); test: Murine model of wound healing (biopsy punch) infected with bioluminescent MRSA; assay type: in vivo; details: mice infected with 1×10^5 CFU bioluminescent MRSA; 20 μL topically three times daily; two week period; FIG. 1A
Protocol: An exemplary formulation (Formulation A) was tested in the murine model of wound healing (Dunn, Louise, et al. “Murine model of wound healing.” Journal of Visualized Experiments. 75 (2013): e50265-e50265).
• Biopsy punch model performed • Infected with 1×10^5 CFUs bioluminescent MRSA
Wound was imaged then treated with Formulation A
The animals were treated topically with 20 μL of Formulation A, bacitracin, or vehicle three times daily and imaged
The animals were imaged, weight, and their wound was measured daily
The animals were sacrificed and the bacterial burdens were checked in the wound, the liver, the spleen, and the blood.
Tracking of infection and wound healing in mice infected with 1×10^5 CFU bioluminescent MRSA and treated with 20 μL Formulation A, bacitracin (positive control), or vehicle control (N=5 for each treatment group). FIG. 1A: average radiance in the wound bed detected over a two week period. […] Statistical analysis was conducted in GraphPad Prism 6 using a two-way ANOVA test: ***p<0.001; ****p<0.0001. FIG. 1B: box and whisker plots of the wound area over time, beginning on day 4 after the removal of the surgical wound dressing. […] FIG. 1C: plot of the change in weight through the duration of infection and treatment.

[4] = read-out: Minimum Bactericidal Concentration
[5] = read-out: Minimum Inhibitory Concentration

Row | Compound | biofilm accumulation after treatment (S. mutans) | MBC (S. aureus ATCC 6538; ATCC6538, read-out: Minimum Bactericidal Concentration) [µg/mL] | MIC (S. aureus ATCC 6538; ATCC6538, read-out: Minimum Inhibitory Concentration) [µg/mL] | MBC (MRSA clinical isolate; [4]) [µg/mL] | MIC (MRSA clinical isolate; [5]) [µg/mL] | MBC [1, 4] [µg/mL] | MIC [1, 5] [µg/mL] | MBC [2, 4] [µg/mL] | MIC [2, 5] [µg/mL] | bacterial burden, average radiance in the wound bed [3]
1 | CCCCCCCCCCCCC[N+](C)(C)Cc1ccccc1 [BAK, benzalkonium chloride] | approximate equivalence |  |  |  |  |  |  |  |  | 
2 | C12-C14 alkyl(ethylbenzyl)dimethylammonium chloride | approximate equivalence |  |  |  |  |  |  |  |  | 
3 | CC[C@H](C)[C@H](N)C1=N[C@H](C(=O)N[C@@H](CC(C)C)C(=O)N[C@H](CCC(=O)O)C(=O)N[C@H](C(=O)N[C@H]2CCCCNC(=O)[C@H](CC(N)=O)NC(=O)[C@@H](CC(=O)O)NC(=O)[C@H](Cc3cnc[nH]3)NC(=O)[C@@H](Cc3ccccc3)NC(=O)[C@H]([C@@H](C)CC)NC(=O)[C@@H](CCCN)NC2=O)[C@@H](C)CC)CS1 [Bacitracin] ({Ileψ(thiazoline)Cys}-L[dE]IK[dOrn]I[dF]H[dD]N; lactam 4-C) |  | 67 (≈ 47.1 µM) | 67 (≈ 47.1 µM) | 67 (≈ 47.1 µM) | 67 (≈ 47.1 µM) | 333 (≈ 234 µM) | 67 (≈ 47.1 µM) | 333 (≈ 234 µM) | 67 (≈ 47.1 µM) | completely cleared infection within the first day
